Source: PMC4967059, “Efficient 9α-hydroxy-4-androstene-3,17-dione production by engineered Bacillus subtilis co-expressing Mycobacterium neoaurum 3-ketosteroid 9α-hydroxylase and B. subtilis glucose 1-dehydrogenase with NADH regeneration” (SpringerPlus, 2016)

Molecular target: T1, KshB (Mycolicibacterium neoaurum, UniProt D2Y640)
T1 construct: gene kstR; pMA5-kshB primer R1 carries no His-tag
Assay: dichlorophenolindophenol reduction assay
Format: biochemical
Conditions: 0.25 mM NADH, 0.1 mM 2,6-dichlorophenolindophenol, 50 mM Tris-HCl pH 7.0, room temperature; electron donor; data not shown

T1 sequence (D2Y640 entry or part of it): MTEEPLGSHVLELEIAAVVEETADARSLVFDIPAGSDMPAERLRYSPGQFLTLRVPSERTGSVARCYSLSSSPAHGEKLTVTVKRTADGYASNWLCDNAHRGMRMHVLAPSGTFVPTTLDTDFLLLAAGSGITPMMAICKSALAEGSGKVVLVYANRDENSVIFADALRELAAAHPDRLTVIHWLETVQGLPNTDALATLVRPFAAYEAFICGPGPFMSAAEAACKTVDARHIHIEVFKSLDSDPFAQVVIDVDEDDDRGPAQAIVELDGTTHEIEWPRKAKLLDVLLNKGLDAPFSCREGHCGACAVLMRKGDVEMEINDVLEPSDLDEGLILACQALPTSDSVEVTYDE

NC(=O)C1=CN([C@@H]2O[C@H](COP(=O)(O)OP(=O)(O)OC[C@H]3O[C@@H](n4cnc5c(N)ncnc54)[C@H](O)[C@@H]3O)[C@@H](O)[C@H]2O)C=CC1 [NADH]
dichlorophenolindophenol reduction assay: accepts electrons from NAD(P)H and transfers it to oxygenase component KshA
